Values joined by “and” are separate entries in the source; they are usually repeats but may differ in a detail not shown here. Identical values can stand only once.
Columns and labels:
[1] = tested on: CAL-148; assay: drug sensitivity score (DSS), CellTiter-Glo (DSS (AUC-based score)); higher = stronger drug effect (viability inhibition or cytotoxicity); extreme values may be limits of the assay; details: incubation time: 72 h
Method in brief: (§1)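 Breast cancer cell lines, seeded as 20 µl suspension, were incubated 72 h with compound in 384-well plates at 5 concentrations in 10-fold steps over a 10,000-fold range set for each compound. Fluorescence from CellTox Green was read at 485/520 nm before CellTiter-Glo luminescence, which was read after 10 min at room temperature. Every plate was normalised to 0.1 % DMSO and a positive kill control, and the drug sensitivity score was taken from the area under the fitted dose-response curve.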

[2] = tested on: SK-BR-3; assay: as above; details: incubation time: 72 h
Method in brief: as §1

[3] = tested on: MDA-MB-468; assay: as above; details: incubation time: 72 h
Method in brief: as §1

[4] = tested on: HDQ-P1; assay: as above; details: incubation time: 72 h
Method in brief: as §1

[5] = tested on: MCF-10A; assay: as above; details: incubation time: 72 h
Method in brief: as §1

[6] = tested on: CAL-85-1; assay: as above; details: incubation time: 72 h
Method in brief: as §1

[7] = tested on: BT-549; assay: as above; details: incubation time: 72 h
Method in brief: as §1

[8] = tested on: BT-474; assay: as above; details: incubation time: 72 h
Method in brief: as §1

[9] = tested on: CAL-51; assay: normalised viability (% of control), CellTiter-Blue; higher = more viable cells (about 100 = DMSO control); details: incubation time: 72 h
Method in brief: (§2)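 Plates were quality-checked by Z'-factor and normalised to vehicle (100) and a positive kill control (0). The underlying assay incubated breast cancer cell lines for 72 h on 384-well plates with compound, then added 2.5 µl CellTiter-Blue for 2 h at 37 °C and read at 560/590 nm. The value is normalised viability at a single listed concentration of the series.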

[10] = tested on: CAL-148; assay: as above; details: incubation time: 72 h
Method in brief: as §2

[11] = tested on: SK-BR-3; assay: as above; details: incubation time: 72 h
Method in brief: as §2

[12] = tested on: HCC1143; assay: as above; details: incubation time: 72 h
Method in brief: as §2

[13] = tested on: CAL-120; assay: as above; details: incubation time: 72 h
Method in brief: as §2

[14] = tested on: MDA-MB-468; assay: as above; details: incubation time: 72 h
Method in brief: as §2

[15] = tested on: MDA-MB-436; assay: as above; details: incubation time: 72 h
Method in brief: as §2

[16] = tested on: HCC1937; assay: as above; details: incubation time: 72 h
Method in brief: as §2

[17] = tested on: Hs578T; assay: as above; details: incubation time: 72 h
Method in brief: as §2

[18] = tested on: MDA-MB-453; assay: as above; details: incubation time: 72 h
Method in brief: as §2

[19] = tested on: BT-549; assay: as above; details: incubation time: 72 h
Method in brief: as §2

[20] = tested on: HCC1599; assay: as above; details: incubation time: 72 h
Method in brief: as §2

[21] = tested on: MFM-223; assay: as above; details: incubation time: 72 h
Method in brief: as §2

[22] = tested on: BT-474; assay: as above; details: incubation time: 72 h
Method in brief: as §2

[23] = tested on: CAL-51; details: 72 h
Method in brief: (§3)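 For viability and cell death testing, 384-well plates carried compound at 5 concentrations in 10-fold steps over a compound-specific 10,000-fold range, and breast cancer cell lines were seeded in 20 µl suspension. After 72 h incubation, cell death was read by CellTox Green fluorescence (485/520 nm) before viability was read by CellTiter-Glo luminescence. EC50 was fitted from the dose-response curves and censored at the top concentration. Normalisation on each plate was to 0.1 % DMSO and a positive kill control.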

[24] = tested on: MDA-MB-453; details: 72 h
Method in brief: as §3

[25] = tested on: MDA-MB-231; details: 72 h
Method in brief: as §3

[26] = tested on: CAL-120; details: 72 h
Method in brief: as §3

[27] = tested on: MDA-MB-468; details: 72 h
Method in brief: as §3

[28] = tested on: HCC1937; details: 72 h
Method in brief: as §3

[29] = tested on: MCF-10A; details: 72 h
Method in brief: as §3

[30] = tested on: Hs578T; details: 72 h
Method in brief: as §3

[31] = tested on: CAL-85-1; details: 72 h
Method in brief: as §3

[32] = tested on: BT-474; details: 72 h
Method in brief: as §3

Structure (SMILES) | drug sensitivity score [1] | drug sensitivity score [2] | drug sensitivity score [3] | drug sensitivity score [4] | drug sensitivity score [5] | drug sensitivity score [6] | drug sensitivity score [7] | drug sensitivity score [8] | normalised viability ([9]; 30 nM) | normalised viability ([10]; 30 nM) | normalised viability ([11]; 1000 nM) | normalised viability ([12]; 1000 nM) | normalised viability ([13]; 1000 nM) | normalised viability ([14]; 1000 nM) | normalised viability ([15]; 1000 nM) | normalised viability ([16]; 1000 nM) | normalised viability ([17]; 1000 nM) | normalised viability ([19]; 1000 nM) | normalised viability ([20]; 1000 nM) | normalised viability ([21]; 1000 nM) | also measured
CC(C)(C#N)c1cc(Cn2cncn2)cc(C(C)(C)C#N)c1 [Anastrozole] | 0 | 0 | 0 | 0 | 0 | 0 | 0 | 0 | 106% | 96.8% | 98.7% | 83.5% | 89.5% | 101% | 83.6% | 95.4% | 95.7% | 99.1% | 88.3% | 90.4% | normalised viability ([18]; 30 nM): 91%; normalised viability ([22]; 1000 nM): 101%
Cc1ccc(NC(=O)c2ccc(CN3CCN(C)CC3)cc2)cc1Nc1nccc(-c2cccnc2)n1 [Imatinib] | 0 | 0 | 0 | 0 | 0 | 0 | 0 | 0 | 106% and 99.3% | 89.8% and 88.6% | 103% and 115% | 85.9% and 97% | 86.6% and 91.9% | 106% and 109% | 74.6% and 90.3% | 80.5% and 85.3% | 100% and 103% | 95.8% and 88.7% | 109% and 102% | 104% and 100% | normalised viability ([22]; 1000 nM): 111%; EC50, CellTiter-Glo [23]: 4170 nM; EC50, CellTiter-Glo [24]: > 10000 nM
CC(C)c1c(C(=O)Nc2ccccc2)c(-c2ccccc2)c(-c2ccc(F)cc2)n1CC[C@@H](O)C[C@@H](O)CC(=O)O [Atorvastatin] | 0 | 0 | 4.08 | 5.79 | 7.2 | 3.85 | 0 | 8.43 |  |  |  |  |  |  |  |  |  |  |  |  | EC50, CellTiter-Glo [23]: 2210 nM; EC50, CellTiter-Glo [25]: 1270 nM; EC50, CellTiter-Glo [26]: 1840 nM; EC50, CellTiter-Glo [27]: 4390 nM; EC50, CellTiter-Glo [28]: 2370 nM; EC50, CellTiter-Glo [29]: 2280 nM; EC50, CellTiter-Glo [30]: 7690 nM; EC50, CellTiter-Glo [31]: 1900 nM; EC50, CellTiter-Glo [24]: > 10000 nM; EC50, CellTiter-Glo [32]: 1750 nM
Nc1nc(OCc2cc(Br)cs2)c2[nH]cnc2n1 [Lomeguatrib] | 0 | 0 | 0 | 0 | 0 | 0 | 0 | 0 |  |  |  |  |  |  |  |  |  |  |  |  | 
Cc1cc2c(C(C)C)c(O)c(O)c(C=O)c2c(O)c1-c1c(C)cc2c(C(C)C)c(O)c(O)c(C=O)c2c1O [Gossypol] |  |  |  |  |  |  |  |  |  |  |  |  |  |  |  |  |  |  |  |  | normalised viability ([9]; 300 nM): 94.2%; normalised viability ([10]; 300 nM): 109%; normalised viability ([11]; 10000 nM): 28.6%; normalised viability ([12]; 10000 nM): 49%; normalised viability ([13]; 10000 nM): 37.5%; normalised viability ([14]; 10000 nM): 6.5%; normalised viability ([15]; 10000 nM): 14.9%; normalised viability ([16]; 10000 nM): 23.3%; normalised viability ([17]; 10000 nM): 6%; normalised viability ([18]; 300 nM): 103%; normalised viability ([19]; 10000 nM): 19.5%; normalised viability ([20]; 10000 nM): 47.2%; normalised viability ([21]; 10000 nM): 23.3%; normalised viability ([22]; 10000 nM): 21.5%

Reference: the supplement of paper PMC4862054
